Laboratory results taken from PMC6511062, “Preclinical candidate for the treatment of visceral leishmaniasis that acts through proteasome inhibition” (Proceedings of the National Academy of Sciences of the …, 2019).

Tests used:
[1] = tested on: L. donovani promastigotes; assay: Morphological analysis by transmission EM; assay type: cell-based, Leishmania donovani; conditions: two times EC50, 6 h
Experimental: Profound morphological changes were evident in parasites treated with compounds from this series. To gain additional insight into these compound-induced changes, L. donovani promastigotes were treated with 7 at a concentration equivalent to two times the established EC50 value for 6 h before analysis by transmission EM. […] In addition, there was a significant accumulation of intracellular vesicles within treated parasites (SI Appendix, Fig. S8). Based on our target identification studies, we reasoned that an inability to recycle key proteins via the proteasome left these parasites overcome by their own waste protein products. […]
95°C for 3 min; 40 cycles of 95°C for 20 s; then 60 °C for 20 s. […] Relative quantification in the tetracycline-induced cell lines were normalized to the un-induced cell line using the […]
Cultures of bloodstream T. brucei and L. donovani promastigotes at starting cell densities of 5 x 105 were incubated with concentrations of compound 7 equivalent to 5x their respective EC50 values. […] After washing, cell densities were adjusted to 5 × 10^5 cells mL, re-suspended in 500 µL of PBS containing 50 µg/mL propidium iodide, 50 µg/mL RNase and 0.1% Triton X-100, incubated at room temperature for 20 min in the dark and analysed using FACSort analytical flow cytometer using Cellquest software (BD Biosciences). j. […]

[2] = Pharmacokinetics in male CD-1 mice; assay type: in vivo, mouse
Experimental: (§1) 5. Intrinsic clearance (CLint) […]
(§2) 6. Pharmacokinetic studies.
(§3) Mouse pharmacokinetic studies were conducted in male CD-1 mice and male beagle dogs. 3 animals per group were used for each study performed.
(§4) A dose of 3 mg/kg was administered intravenously, in a bolus form to mice and infused over a 30 min period to dogs. For all the intravenous studies compound were dissolved in 5% DMSO/20% kleptose in saline.
(§5) A dose of 10 mg/kg was orally administered by gavage to the two species in a suspension of 1% methylcellulose to investigate oral pharmacokinetics.
(§6) Peripheral blood samples were obtained at 5, 15, 30 min, 1, 2, 4, 6 ,8 and 24 h after intravenous administration and 15, 30, 45 min,1, 2, 4, 6, 8 and 24 h after oral administration. Blood was 1/2 diluted with milliQ water and immediately frozen on dry ice until analysis. Quantification was performed by means of LC-MS/MS (API4000), with a lower limit of quantification of 1 ng/mL.
(§7) Pharmacokinetic parameters, namely clearance (CL), volume of distribution at steady state (Vss) and bioavailability (F%), were estimated using Phoenix, WinNonLin […]
(§8) Data analysis and calculation of pharmacokinetic parameters was performed using Phoenix, WinNonLin Version 6.3.
(§9) Following the intravenous administration, the whole blood clearance was calculated

[3] = Pharmacokinetics in male beagle dogs; assay type: in vivo, dog
Experimental: as §1, §2, §3, §4, §5, §6, §7, §8, §9

[4] = male, CD-1, whole blood, mouse, 3 mg/kg iv bolus
[5] = male, beagle, whole blood, dog, 3 mg/kg iv 0.5 h infusion

| SMILES | morphological changes (transmission EM) [1] | clearance [2, 4] [L/h/kg] | half-life [2, 4] [min] | Vd ([2]; male, CD-1, whole blood, mouse, 3 mg/kg iv bolus, read-out: Vss) [L/kg] | blood clearance ([2]; mouse) [mL/min per kilogram] | Cl (%LBF) ([2]; mouse, 3 mg/kg iv) [%] | bioavailability ([2]; whole blood, CD-1 male mouse, 10 mg/kg po, read-out: F (oral bioavailability)) [%] | blood clearance ([3]; dog) [mL/min per kilogram] | Cl (%LBF) ([3]; dog, 3 mg/kg iv) [%] | Vss ([3]; dog, 3 mg/kg iv 0.5 h infusion, 3 mg/kg) [L/kg] | Vd ([3]; male, beagle, dog, whole blood, iv, 3 mg/kg, dog, 3 mg/kg iv 0.5 h infusion, read-out: Vss) [L/kg] | clearance [3, 5] [L/h/kg] | half-life [3, 5] [min] | bioavailability ([3]; whole blood, Beagle male dog, 10 mg/kg po, read-out: F (oral bioavailability)) [%] |
| --- | --- | --- | --- | --- | --- | --- | --- | --- | --- | --- | --- | --- | --- | --- |
| O=C(Nc1ccc(F)c(-c2cn3nc(-c4ccccc4)cnc3n2)c1)N1CCCC1 [Compound 7] | swelling of promastigotes | – | – | – | – | – | – | – | – | – | – | – | – | – |
| O=C(Nc1ccc(F)c(-c2ccn3c(N4CCOCC4)cnc3n2)c1)N1CCCC1 [Compound 8] | – | 2.44 ± 0.816 | 39 ± 19.2 | 2.2 | 41 | 32 | 18 | 30 | 53 | 1.3 | 1.34 ± 0.381 | 1.78 ± 0.364 | 31.2 ± 4.8 | 46 |
